Assay results published in patent US12377110B2, “Fospropofol methods and compositions” (Epalex Corporation, priority 2019, dated 2025).

Key:
Beagle dogs = test: Study No. 15-4 (GLP): 14-day once daily oral gavage toxicity of fospropofol disodium; format: in vivo
Method: (§1) The purpose of Study No. 15-4 (GLP) was to determine the potential toxicity of fospropofol in Beagle dogs when administered once daily by oral gavage for 14 days. […] Because the treatment-related clinical observations (consistent with the expected transient sedative actions of fospropofol) and effects on hematology and clinical chemistry parameters were considered nonadverse, the NOAEL was determined to be 160 mg/kg/day (3200 mg/m^2/day).
(§2) As in the rat, CNS-related clinical signs were observed which were consistent with the established pharmacodynamic effects of fospropofol. […] The NOAEL was determined to be 160 mg/kg/day (3200 mg/m^2/d) in male and female Beagle dogs.

[1] = as above; format: in vivo, Beagle dogs; details: both sexes, dog, in vivo; 14 days once daily oral gavage, Beagle dogs
Method: as §1, §2

CC(C)c1cccc(C(C)C)c1OCOP(=O)([O-])O.[Na+] [fospropofol disodium]
Tolerability (Beagle dogs; 0, 50, 100, and 160 mg/kg/day for 14 consecutive days): well tolerated at all close levels with no adverse findings | Mortalities (Beagle dogs; 0, 50, 100, and 160 mg/kg/day for 14 days): no mortalities | NOAEL (Beagle dogs; 14 days once daily oral gavage, Beagle dogs): 3200 mg/m^2/day | Histopathology, all tissues including GIT-related (Beagle dogs; up to 160 mg/kg/day): no treatment-related histopathological findings | Body weights, cardiovascular evaluations (ECGs, QTc), ophthalmology, clinical pathology, organ weights (Beagle dogs; up to 160 mg/kg/day for 14 days): no toxicologically significant changes | NOAEL at 14 days [1]: 160 mg/kg/day
